Target: T1, MDR1 (Homo sapiens, UniProt P08183)
T1 construct: expressed in transfected cells
Experiment: MDR1 membrane permeability test
Assay type: in vitro ADME
Settings: pH 7.4, efflux ratio (ER), Papp B to A / A to B, human MDR1-expressing LLC-PK1 cells, read-out: MDR1 substrate screening 1 μM (MDRSUB1)/Ratio (NUMBER)
Protocol: MDR1 Membrane Permeability Test
When MDR1 is expressed in excess in LLC-PK1 cell, which is a polar cell, MDR1 is localized in apical membrane (A), thus promoting transcellular transport from the basement membrane side (B) toward direction A. When a ratio to the transcellular transport in the opposite direction is taken and a ratio to a control cell in which a mock vector has been introduced is further taken, an efflux ratio of MDR1 to simple diffusion (corrected efflux ratio) is calculated. Similarly, when a brain/plasma concentration ratio in Mdr1(−/−) mouse is divided by a brain/plasma concentration ratio in wild-type mouse, an efflux ratio of Mdr1 to simple diffusion in BBB (Kp, brain ratio, higher value means lower central nervous system permeability) is calculated. Adachi Y. et al. (Reference 1) has reported a positive correlation between corrected efflux ratio and Kp, brain ratio (FIG. 5(C)), and efflux ratio in MDR1 expressing cell and Kp, brain ratio (FIG. 5(B)).
To confirm the central nervous system permeability of the compounds of the present invention, a MDR1 membrane permeability test was performed by the following method.
Human MDR1-expressing LLC-PK1 cells were cultured according to the report of Takeuchi et al. (Reference 2). Human MDR1-expressing LLC-PK1 cells were cultured in 10% fetal bovine serum (Invitrogen), 500 μg/ml G418 (Invitrogen), 150 ng/ml colchicine-containing M199 medium (Invitrogen) under 5% CO2 conditions at 37° C.
Transcellular transport was performed according to the report of Sugimoto et al. (Reference 3). The cells were cultured for 3 days on HTS Transwell (registered trademark) 96 well permeable support (pore size 0.4 μm, 0.143 cm^2 surface area, Corning Life Sciences) having polyethylene terephthalate membrane on which the cells had been seeded at 3.45×10^4 cells/well. After preincubation in M199 medium (containing 10 mmol/L HEPES, 1% BSA, pH 7.4) for 30 min, a drug solution (10 μmol/L digoxin, 200 μmol/L LY, […]) dissolved in M199 medium was added to the apical side or basolateral side of the Transwell by 75 or 250 μL each and the cells were cultured under 5% CO2 conditions at 37° C. After 1 hr, the sample was collected from the side opposite to the side where the drug solution was added, and the concentration of the test compound was measured by LC-MS/MS. As an internal standard substance, 100 ng/mL alprenolol and diclofenac were used. The analysis conditions were as follows.
Papp, A to B and Papp, B to A (apparent permeability) were calculated from the formula (1), and the efflux ratio (ER) was calculated from the formula (2).

T1 sequence (P08183 whole entry): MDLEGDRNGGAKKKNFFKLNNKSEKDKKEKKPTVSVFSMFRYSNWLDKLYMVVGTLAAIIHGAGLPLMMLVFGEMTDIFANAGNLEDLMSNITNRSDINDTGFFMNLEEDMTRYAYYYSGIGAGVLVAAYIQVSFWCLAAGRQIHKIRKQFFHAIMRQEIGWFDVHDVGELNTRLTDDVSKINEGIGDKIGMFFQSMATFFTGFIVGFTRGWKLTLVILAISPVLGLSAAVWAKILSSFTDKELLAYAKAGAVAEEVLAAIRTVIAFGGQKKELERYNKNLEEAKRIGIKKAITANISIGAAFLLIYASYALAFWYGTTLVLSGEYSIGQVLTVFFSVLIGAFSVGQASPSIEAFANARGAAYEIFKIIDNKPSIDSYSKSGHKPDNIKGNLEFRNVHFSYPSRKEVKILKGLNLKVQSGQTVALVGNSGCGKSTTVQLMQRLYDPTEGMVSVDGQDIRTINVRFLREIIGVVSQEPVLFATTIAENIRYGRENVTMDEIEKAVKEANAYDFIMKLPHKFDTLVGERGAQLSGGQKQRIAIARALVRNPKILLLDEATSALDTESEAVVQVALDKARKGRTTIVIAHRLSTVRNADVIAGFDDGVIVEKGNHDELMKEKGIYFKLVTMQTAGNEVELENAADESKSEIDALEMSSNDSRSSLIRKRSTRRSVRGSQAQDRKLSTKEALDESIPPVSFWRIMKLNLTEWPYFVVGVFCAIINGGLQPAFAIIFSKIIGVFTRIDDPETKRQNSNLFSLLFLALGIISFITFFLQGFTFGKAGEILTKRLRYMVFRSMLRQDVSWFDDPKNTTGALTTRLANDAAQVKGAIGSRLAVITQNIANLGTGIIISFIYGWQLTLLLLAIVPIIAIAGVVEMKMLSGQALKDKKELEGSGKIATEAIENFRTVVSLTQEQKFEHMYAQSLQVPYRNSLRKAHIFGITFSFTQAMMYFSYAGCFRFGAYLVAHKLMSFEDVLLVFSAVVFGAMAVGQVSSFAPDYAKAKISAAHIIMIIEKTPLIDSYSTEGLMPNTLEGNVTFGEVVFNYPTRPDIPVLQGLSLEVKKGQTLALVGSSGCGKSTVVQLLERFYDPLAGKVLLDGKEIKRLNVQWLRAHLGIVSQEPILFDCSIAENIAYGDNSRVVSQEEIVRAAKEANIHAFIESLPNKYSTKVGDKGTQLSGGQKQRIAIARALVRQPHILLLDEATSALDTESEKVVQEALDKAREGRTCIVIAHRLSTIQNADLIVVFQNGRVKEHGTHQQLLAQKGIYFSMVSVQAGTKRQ

COc1cc2ncn([C@H]3CCOC[C@@H]3O)c(=O)c2cc1Cc1ccc(-c2cn(C)nn2)nc1 [Example 64, 1,5-anhydro-2,3-dideoxy-3-(7-methoxy-6-((6-(1-methyl-1H-1,2,3-triazol-4-yl)pyridin-3-yl)methyl)-4-oxoquinazolin-3 (4H)-yl)-L-threo-pentitol]
efflux ratio at 1 hr, 1 μM: 36

Cc1c(Cc2ccc(-c3cnn(C(C)(C)C)c3)nc2)cc2c(=O)n([C@H]3CCOC[C@@H]3O)cnc2c1C [Example 72, 1,5-anhydro-3-(6-((6-(1-tert-butyl-1H-pyrazol-4-yl)pyridin-3-yl)methyl)-7,8-dimethyl-4-oxoquinazolin-3(4H)-yl)-2,3-dideoxy-L-threo-pentitol]
efflux ratio at 1 hr, 1 μM: 2.9

CCNC(=O)c1ccc(Cc2cc3c(=O)n([C@H]4CCOC[C@@H]4O)cnc3c(C)c2C)cc1 [Example 28, 1,5-anhydro-2,3-dideoxy-3-(6-(4-(ethylcarbamoyl)benzyl)-7,8-dimethyl-4-oxoquinazolin-3 (4H)-yl)-L-threo-pentitol]
efflux ratio at 1 hr, 1 μM: 11

Cc1c(Cc2ccc(-c3cn(C)nn3)cc2)cc2c(=O)n([C@H]3CCOC[C@@H]3O)cnc2c1F [Example 22, 1,5-anhydro-2,3-dideoxy-3-(8-fluoro-7-methyl-6-(4-(1-methyl-1H-1,2,3-triazol-4-yl)benzyl)-4-oxoquinazolin-3(4H)-yl)-L-threo-pentitol]
efflux ratio at 1 hr, 1 μM: 12

Cc1c(Cc2ccc(-c3cn(C)nn3)nc2)cc2c(=O)n([C@H]3CCOC[C@@H]3O)cnc2c1Cl [Example 14, 1,5-anhydro-3-(8-chloro-7-methyl-6-((6-(1-methyl-1H-1,2,3-triazol-4-yl)pyridin-3-yl)methyl)-4-oxoquinazolin-3(4H)-yl)-2,3-dideoxy-L-threo-pentitol]
efflux ratio at 1 hr, 1 μM: 22

Cc1c(Cc2ccc(-n3cccn3)cc2)cc2c(=O)n([C@H]3CCOC[C@@H]3O)nnc2c1C [Comparative Example 2, 3-((3R,4S)-3-hydroxytetrahydro-2H-pyran-4-yl)-7,8-dimethyl-6-(4-(1H-pyrazol-1-yl)benzyl)-1,2,3-benzotriazin-4(3H)-one, reference compound]
efflux ratio at 1 hr, 1 μM: 1.3

Cc1c(Cc2ccc(-n3cccn3)cc2)cc2c(=O)n([C@H]3CCOC[C@@H]3O)cnc2c1C [Comparative Example 1, 3-((3R,4S)-3-hydroxytetrahydro-2H-pyran-4-yl)-7,8-dimethyl-6-(4-(1H-pyrazol-1-yl)benzyl)quinazolin-4(3H)-one, reference compound]
efflux ratio at 1 hr, 1 μM: 0.83

Cc1c(Cc2ccc(C(=O)N3CC(C(F)F)C3)cc2)cc2c(=O)n([C@H]3CCOC[C@@H]3O)cnc2c1C [Example 52, 1,5-anhydro-2,3-dideoxy-3-(6-(4-((3-(difluoromethyl)azetidin-1-yl)carbonyl)benzyl)-7,8-dimethyl-4-oxoquinazolin-3 (4H)-yl)-L-threo-pentitol]
efflux ratio at 1 hr, 1 μM: 18

Cc1c(Cc2ccc(C(=O)NC3CC(F)C3)cc2)cc2c(=O)n([C@H]3CCOC[C@@H]3O)cnc2c1C (stereo partly drawn) [Example 46, 1,5-anhydro-2,3-dideoxy-3-(6-(4-((3-fluorocyclobutyl)-carbamoyl)benzyl)-7,8-dimethyl-4-oxoquinazolin-3 (4H)-yl)-L-threo-pentitol]
efflux ratio at 1 hr, 1 μM: 18

Cc1c(Cc2ccc(C(=O)NCC(=O)N(C)C)cc2)cc2c(=O)n([C@H]3CCOC[C@@H]3O)cnc2c1C [Example 30, 1,5-anhydro-2,3-dideoxy-3-(6-(4-((2-(dimethylamino)-2-oxoethyl)carbamoyl)benzyl)-7,8-dimethyl-4-oxoquinazolin-3 (4H)-yl)-L-threo-pentitol]
efflux ratio at 1 hr, 1 μM: 24

Cc1c(Cc2ccc(C(=O)NCCCF)cc2)cc2c(=O)n([C@H]3CCOC[C@@H]3O)cnc2c1C [Example 34, 1,5-anhydro-2,3-dideoxy-3-(6-(4-((3-fluoropropyl)carbamoyl)benzyl)-7,8-dimethyl-4-oxoquinazolin-3 (4H)-yl)-L-threo-pentitol]
efflux ratio at 1 hr, 1 μM: 20

Cc1c(Cc2ccc(-c3cnn(CC(=O)N(C)C)c3)nc2)cc2c(=O)n([C@H]3CCOC[C@@H]3O)cnc2c1C [Example 82, 1,5-anhydro-2,3-dideoxy-3-(6-((6-(1-(2-(dimethylamino)-2-oxoethyl)-1H-pyrazol-4-yl)pyridin-3-yl)methyl)-7,8-dimethyl-4-oxoquinazolin-3(4H)-yl)-L-threo-pentitol]
efflux ratio at 1 hr, 1 μM: > 18

Cc1c(Cc2ccc(C(=O)NCC3CCOCC3)cc2)cc2c(=O)n([C@H]3CCOC[C@@H]3O)cnc2c1C [Example 51, 1,5-anhydro-2,3-dideoxy-3-(7,8-dimethyl-4-oxo-6-(4-((tetrahydro-2H-pyran-4-ylmethyl)carbamoyl)-benzyl)quinazolin-3 (4H)-yl)-L-threo-pentitol]
efflux ratio at 1 hr, 1 μM: 27

Cc1ccc(Cc2cc3c(=O)n([C@H]4CCOC[C@@H]4O)cnc3c(Cl)c2C)cn1 [Example 16, 1,5-anhydro-3-(8-chloro-7-methyl-6-((6-methylpyridin-3-yl)methyl)-4-oxoquinazolin-3(4H)-yl)-2,3-dideoxy-L-threo-pentitol]
efflux ratio at 1 hr, 1 μM: 6.8

CNC(=O)c1ccc(Cc2cc3c(=O)n([C@H]4CCOC[C@@H]4O)cnc3c(Cl)c2C)cc1F [Example 10, 1,5-anhydro-3-(8-chloro-6-(3-fluoro-4-(methylcarbamoyl)benzyl)-7-methyl-4-oxoquinazolin-3(4H)-yl)-2,3-dideoxy-L-threo-pentitol]
efflux ratio at 1 hr, 1 μM: 15

COC(C)(C)CNC(=O)c1ccc(Cc2cc3c(=O)n([C@H]4CCOC[C@@H]4O)cnc3c(C)c2C)cc1 [Example 31, 1,5-anhydro-2,3-dideoxy-3-(6-(4-((2-methoxy-2-methylpropyl)carbamoyl)benzyl)-7,8-dimethyl-4-oxoquinazolin-3 (4H)-yl)-L-threo-pentitol]
efflux ratio at 1 hr, 1 μM: 12

Cc1c(Cc2ccc(C(=O)NC3(C)CC3)cc2)cc2c(=O)n([C@H]3CCOC[C@@H]3O)cnc2c1C [Example 43, 1,5-anhydro-2,3-dideoxy-3-(7,8-dimethyl-6-(4-((1-methylcyclopropyl)carbamoyl)-benzyl)-4-oxoquinazolin-3 (4H)-yl)-L-threo-pentitol]
efflux ratio at 1 hr, 1 μM: 12

Cc1c(Cc2ccc(C(=O)NC3(C)COC3)cc2)cc2c(=O)n([C@H]3CCOC[C@@H]3O)cnc2c1C [Example 26, 1,5-anhydro-2,3-dideoxy-3-(7,8-dimethyl-6-(4-((3-methyloxetan-3-yl)carbamoyl)benzyl)-4-oxoquinazolin-3(4H)-yl)-L-threo-pentitol]
efflux ratio at 1 hr, 1 μM: 24

Cc1c(Cc2ccc(C(=O)NC3(C(F)F)CC3)cc2)cc2c(=O)n([C@H]3CCOC[C@@H]3O)cnc2c1C [Example 35, 1,5-anhydro-2,3-dideoxy-3-(6-(4-((1-(difluoromethyl)-cyclopropyl)carbamoyl)benzyl)-7,8-dimethyl-4-oxoquinazolin-3 (4H)-yl)-L-threo-pentitol]
efflux ratio at 1 hr, 1 μM: 9

Cc1c(Cc2ccc(C(=O)NCC3CCCO3)cc2)cc2c(=O)n([C@H]3CCOC[C@@H]3O)cnc2c1C (stereo partly drawn) [Example 45, 1,5-anhydro-2,3-dideoxy-3-(7,8-dimethyl-4-oxo-6-(4-((tetrahydrofuran-2-ylmethyl)carbamoyl)benzyl)quinazolin-3 (4H)-yl)-L-threo-pentitol]
efflux ratio at 1 hr, 1 μM: 23

Cc1c(Cc2ccc(C(=O)NCCCS(C)(=O)=O)c(F)c2)cc2c(=O)n([C@H]3CCOC[C@@H]3O)cnc2c1C [Example 70, 1,5-anhydro-2,3-dideoxy-3-(6-(3-fluoro-4-((3-(methylsulfonyl)propyl)-carbamoyl)benzyl)-7,8-dimethyl-4-oxoquinazolin-3 (4H)-yl)-L-threo-pentitol]
efflux ratio at 1 hr, 1 μM: 13

CNC(=O)c1ccc(Cc2cc3c(=O)n([C@H]4CCOC[C@@H]4O)cnc3c(F)c2C)cc1F [Example 21, 1,5-anhydro-2,3-dideoxy-3-(8-fluoro-6-(3-fluoro-4-(methylcarbamoyl)benzyl)-7-methyl-4-oxoquinazolin-3(4H)-yl)-L-threo-pentitol]
efflux ratio at 1 hr, 1 μM: 20

Cc1nn(C)cc1-c1ccc(Cc2cc3c(=O)n([C@H]4CCOC[C@@H]4O)cnc3c(Cl)c2C)cn1 [Example 12, 1,5-anhydro-3-(8-chloro-6-((6-(1,3-dimethyl-1H-pyrazol-4-yl)pyridin-3-yl)methyl)-7-methyl-4-oxoquinazolin-3(4H)-yl)-2,3-dideoxy-L-threo-pentitol]
efflux ratio at 1 hr, 1 μM: 17

— patent US11560372B2, “Heterocyclic compounds useful as modulators of acetylcholine receptors” (TAKEDA PHARMACEUTICAL COMPANY LIMITED, priority 2017, dated 2023)
